What was measured:
[1] = system: PCK rat (a recessive PKD model); details: Wang et al., 2008; cited from earlier work
HDAC5 nuclear export = assay: HDAC5-GFP nuclear export in transfected MEK cells; assay type: cell-based, mouse; details: for fluid flow-induced HDAC5 nuclear export: GÖ6983 10 μM, GdCl3
Protocol: (§1) Confluent mouse embryonic kidney (MEK) cells were cultured for 1-2 additional days in the absence of interferon-γ to induce optimal differentiation (Nauli et al., 2003). Hanks' Balanced Salt Solution with 20.0 mM HEPES buffer (pH 7.4) and 1% bovine serum albumin was used for calcium imaging and cell culture media for the other experiments. Fluid flow was applied at 0.2 ml/min using a peristaltic pump in 35 mm dishes or 6-well plates, with tubings connected through two 18 Gauge needles at opposing sides of a well (FIG. 9A). Time-lapse imaging was performed on an Axiovert 200M inverted microscope (Karl Zeiss Microlmaging Inc., Thornwood, N.Y.) equipped with a 20×/0.8 NA Plan-Apochromat objective, a Pecon XL-3 environmental chamber (PeCon GmbH, Erbach, Germany) and an AxioCam HSm r1.1 digital monochrome camera (Karl Zeiss). In drug treatments, […] (Sigma-Aldrich, St. Louis, Mo.) was used at 100 nM, GÖ6983 (Sigma-Aldrich) at 10 μM, ionomycin (Sigma-Aldrich) at 1 μM, and GdCl3 (Sigma-Aldrich) at 20 μM.
To determine whether HDAC5 was exported from the nucleus in response to fluid flow, FLAG-MEF2C and HDAC5-GFP constructs were co-transfected into Pkd1^+/+ and Pkd1^−/− MEK cells, and both tagged proteins correctly localized to the nucleus. Stimulation of MEK cells with fluid flow for 30 min led to translocation of HDAC5-GFP, but not FLAG-MEF2C, from the nucleus in Pkd1^+/+. MEK cells, but not in Pkd1^−/− MEK cells (FIG. 2A). […] By contrast, a HDAC5-GFP mutant lacking the 14-3-3 phosphorylation sites (HDAC5^S250/489A) was not exported (FIG. 2C), consistent with a requirement for phosphorylation of these regulatory sites in fluid flow-induced nuclear export of HDAC5. HDAC5 nuclear export also failed in Pkd1^−/− MEK cells, cells treated with GdCl3 (FIG. 2C), or the PKC inhibitor GÖ6983, while treatment with PMA stimulated HDAC5 nuclear exit even without fluid flow (FIG. 2D).

[2] = system: HDAC5 phosphorylation (Ser489); assay: HDAC5 phosphorylation immunoblot in MEK cells without or with fluid flow; assay type: cell-based, mouse; details: for fluid flow-induced HDAC5 phosphorylation: fluid flow 0.2 ml/min, GÖ6983 10 μM, GdCl3 20 μM; for HDAC5 phosphorylation in the absence of fluid flow: no fluid flow, PMA 100 nM, ionomycin 1 μM, phospho-specific antibody
Protocol: as §1
Whether fluid flow across monolayers of MEK cells led to endogenous HDAC5 phosphorylation was determined using a phospho-specific antibody against HDAC5 Ser489 site (equivalent of Ser498 of human HDAC5) (Bossuyt et al., 2008). While HDAC5 phosphorylation level was low prior to fluid flow onset, an increase in phosphorylation was observed 30 minutes after the start of fluid flow and maintained for several hours thereafter (FIGS. 1A and 1B). The increase in HDAC5 phosphorylation was accompanied by an increase in the level of total HDAC5 (FIGS. 12A, C), consistent with the flow-induced gene expression of HDAC5 observed in the microarray analysis (Table 2). […] By contrast, HDAC5 phosphorylation was induced by the calcium ionophore, ionomycin, in the absence of fluid flow (FIG. 1D, see also FIG. 20 for the quantification of HDAC5 phosphorylation levels under various conditions). Treatment with PMA, an activator of protein kinase C(PKC), stimulated HDAC5 phosphorylation in the absence of fluid flow, while the PKC inhibitor GÖ6983 inhibited flow-induced HDAC5 phosphorylation (FIGS. 1D and 20).

PKD^ws25/− mice = assay: SAHA treatment of PKDws25/− mice (mouse model of PKD); details: 4 weeks
Protocol: PKD^ws25/− mice (Wu et al., 1998) were obtained from Albert Einstein College of Medicine (Bronx, N.Y.). PKD^ws25/− mice escape the embryonic lethality of the PKD^−/− phenotype, but recapitulate the human ADPKD phenotype in that they develop cysts early in life (Wu et al., 1998). Eight week old PKD^ws25/− mice (n=15 per group) were treated with 100 mg/kg vorinostat (SAHA) or vehicle (Veh). Animals were dosed daily by i.p. for 5 days followed by 2 days off, for a total of 4 weeks. […] At the end of study, animals were sacrificed and blood taken for analysis of blood urea nitrogen (BUN) levels using the manufacturer's protocol for Hitachi Urea Nitrogen (BUN) Reagent Set (Pointe Scientific, Inc., Canton, Mich.).

MEF2C = assay: Immunoblot of MEF2C in Pkd2−/− embryonic kidneys from TSA-treated mothers; assay type: in vivo, mouse; details: TSA-treated vs DMSO-treated mothers
Protocol: (§2) Pkd2^+/− mice were originally provided by S. Somlo (Yale University, New Haven, Conn.) and Hdac5^−/− mice by E. Olson (University of Texas Southwestern Medical Center, Dallas, Tex.). To obtain embryos of various genotypes, the mutant mice were paired and the pregnant females were sacrificed on 18.5 DPC to collect embryonic kidneys. For TSA treatment experiments pregnant Pkd2^+/− females paired with Pkd2^+/− males were subcutaneously injected daily, from 10.5 dpc to 18.5 dpc with 0.5 μg TSA (Biomol, Enzo Life Sciences Inc., Farmingdale, N.Y.) per gram mouse body weight or DMSO (solvent of TSA) in phosphate buffered saline (PBS). At the end of this treatment, females were sacrificed and embryonic kidneys were collected.
(§3) To test further the possibility that reducing the activity of HDAC5 could suppress cyst formation in Pkd2^−/− embryos, trichostatin A (TSA), a chemical inhibitor against type I and II HDACs (Drummond et al., 2005), was injected into pregnant Pkd2+/− female mice from 10.5 dpc after mating with Pkd2+/− males, and embryonic kidneys were analyzed at 18.5 dpc.

Pkd2−/− embryos = assay: TSA injection of pregnant Pkd2+/- mice, histology of E18.5 embryonic kidneys; assay type: in vivo, mouse
Protocol: as §2, §3

MIM = assay: Immunoblot of MIM in Pkd2−/− embryonic kidneys from TSA-treated mothers; assay type: in vivo, mouse; details: TSA-treated vs DMSO-treated mothers
Protocol: as §2, §3

For “1-deamino-8-D-arginine vasopressin [dDAVP]”, the “effect on cystic disease” value [1] is listed as “aggravated cystic disease”.

With [Cl][Gd]([Cl])[Cl] [GdCl3] the “fluid flow-induced HDAC5 nuclear export” value (HDAC5 nuclear export) was “failed” and the “fluid flow-induced HDAC5 phosphorylation” value [2] was “blocked”.

In the case of COc1ccc2c(c1)c(C1=C(c3c[nH]c4ccccc34)C(=O)NC1=O)cn2CCCN(C)C [GÖ6983], the “fluid flow-induced HDAC5 nuclear export” value (HDAC5 nuclear export) is reported as “failed” and the “fluid flow-induced HDAC5 phosphorylation” value [2] is reported as “inhibited”.

With CCCCCCCCCCCCCC(=O)O[C@@H]1[C@@H](C)[C@@]2(O)[C@@H](C=C(CO)C[C@]3(O)C(=O)C(C)=C[C@@H]23)[C@@H]2C(C)(C)[C@]12OC(C)=O [PMA, 12-myristate 13-acetate] the “HDAC5 nuclear exit without fluid flow” value (HDAC5 nuclear export; no fluid flow, 100 nM PMA) was “stimulated” and the “HDAC5 phosphorylation in the absence of fluid flow” value [2] was “stimulated”.

For O=C(CCCCCCC(=O)Nc1ccccc1)NO [SAHA, suberoylanilide hydroxamic acid], the “blood urea nitrogen (BUN) levels” value (PKD^ws25/− mice; 100 mg/kg i.p. daily 5 days on, 2 days off, compared to vehicle) was “significantly lower”, the animals lost (PKD^ws25/− mice; 100 mg/kg i.p., n=15 per group) was “one” and the “renal tubular epithelial morphology” value (PKD^ws25/− mice; 100 mg/kg i.p., kidney images vs control) was “well organized, nearly normal epithelial morphology”.

With CC(/C=C/C(=O)NO)=C\[C@@H](C)C(=O)c1ccc(N(C)C)cc1 [TSA, trichostatin A] the “enhancement of expression of MEF2C” value (MEF2C) was 4 fold, the “kidney cyst formation in Pkd2−/− embryos” value (Pkd2−/− embryos; 0.5 μg TSA per gram body weight s.c. daily to mothers 10.5-18.5 dpc, compared to DMSO-injected mothers) was “drastically reduced” and the “morphology of renal tubules in Pkd2+/+ embryonic kidneys” value (Pkd2−/− embryos; Pkd2+/+ embryos from TSA-injected mothers) was “did not affect”. For the same compound, the “morphology of cyst lining cells in Pkd2−/− kidneys” value (Pkd2−/− embryos; TSA-treated mothers, as opposed to flat morphology of Pkd2−/− cyst lining cells) was “more normal cuboidal morphology” and the “expression of MIM” value (MIM) was “drastically increased”.

With C[C@H](CCC(=O)O)C[C@H](C)C[C@H](C)C(=O)/C=C(\O)[C@H](C)C[C@H](C)C/C=C/[C@@H](C)[C@@H](O)[C@@H](C)[C@@H](O)C[C@@H]1CC[C@@](C)([C@H]2CC[C@@](C)([C@@H](C)O)O2)O1 [ionomycin] the “HDAC5 phosphorylation in the absence of fluid flow” value [2] was “induced”.
